Source: patent US8030346B2, “Heterocyclic quinolone derivatives that inhibit prolyl hydroxylase activity” (Amgen Inc., priority 2007, dated 2011)

Assays:
HIF PHD2 = HIF PHD2 (Homo sapiens, UniProt Q9GZT9); test: PHD2 inhibition assay (TR-FRET, VCB-Eu detection of hydroxylated P564-HIF1α peptide); assay type: biochemical; conditions: Table of PHD2 IC50 values of Example Compounds
Procedure: Inhibition of HIF PHD2 activity was quantified utilizing the TR-FRET technology. HIF PHD2 catalyzes a hydroxyl modification on the proline residue of the P564-HIF1α peptide substrate (Biotin-[…] (SEQ ID NO: 7)) resulting in recognition and binding of the europylated Von Hippel-Lindau protein (pVHL), elongin B and elongin C heterotrimeric (VCB-Eu) complex.
The PHD2 inhibition assay was executed by addition of freshly dissolved FeCl2 to 178.57 μM (100 μM final concentration) in PHD2 Reaction Buffer containing 30 mM MES, pH 6, 10 mM NaCl, 0.25% Brij-35, 0.01% BSA, and 1% DMSO. 28 μL of the iron solution and 2 μL of inhibitor compounds serially diluted in 100% DMSO (5% DMSO final) were added to black polypropylene 96-well microtiter plates. To that, 10 μL of 10 nM PHD2 (2 nM final) was added to all wells of the plate except for the 8 wells of column 12 (LO control), and allowed to incubate at room temperature on the shaker for one hour. Column 6 was the HI control containing PHD2 enzyme and 5% DMSO vehicle, but no inhibitor compound. To initiate the PHD2 enzymatic reaction, 10 μL of a solution containing 500 nM P564-HIF1α peptide (100 nM final), 10 mM ascorbic acid (2 mM final), and 1.25 μM 2-oxoglutarate (α-ketoglutarate; 0.25 μM final) in PHD2 Reaction Buffer was added to all wells of the plate and allowed to incubate on the shaker at room temperature for one hour.
The reaction was terminated by addition of 25 μL TR-FRET Buffer (50 mM TRIS-HCl, pH 9, 100 mM NaCl, 0.05% BSA, and 0.5% Tween-20) containing 150 mM succinate (product inhibitor; 50 mM final), 75 nM streptavidin-APC (25 nM final), and 7.5 nM VCB-Eu (2.5 nM final). The TR-FRET detection reagents were placed on a shaker for 1 hour to reach binding equilibrium before reading on the Discovery platform (PerkinElmer). Europium is excited at 315 nm and phosphoresces at 615 nm with a large Stoke's shift. APC, in turn, emits at 655 nm upon excitation at 615 nm. The TR-FRET signal is measured as the ratio of the APC 655 nm signal divided by the internal europium reference 615 nm emission signal.
The POC (percentage of control) was determined by comparing the signal from hydroxylated peptide substrate in the enzyme reaction containing inhibitor compound with that from PHD2 enzyme with DMSO vehicle alone (HI control), and no enzyme (LO control). POC was calculated using the formula: % control (POC)=(cpd−average LO)/(average HI−average LO)*100. Data (consisting of POC and inhibitor concentration in […]) was fitted to a 4-parameter equation (y=A+((B−A)/(1+((x/C)^D))), where A is the minimum y (POC) value, B is the maximum y (POC), C is the x (cpd concentration) at the point of inflection and D is the slope factor) using a Levenburg-Marquardt non-linear regression algorithm.

[1] = biological target: T1, Collagen Prolyl Hydroxylase II (CPH2) (Homo sapiens, UniProt O15460); test: Collagen prolyl hydroxylase II activity by radiometric HPLC measurement of 2-oxoglutarate conversion to succinic acid; assay type: biochemical
T1 construct: made in house; host or cells: Trichoplusia ni insect cells (baculovirus, pFastBac1)
T1 sequence (O15460 22-533 isoform O15460-2 limits assumed): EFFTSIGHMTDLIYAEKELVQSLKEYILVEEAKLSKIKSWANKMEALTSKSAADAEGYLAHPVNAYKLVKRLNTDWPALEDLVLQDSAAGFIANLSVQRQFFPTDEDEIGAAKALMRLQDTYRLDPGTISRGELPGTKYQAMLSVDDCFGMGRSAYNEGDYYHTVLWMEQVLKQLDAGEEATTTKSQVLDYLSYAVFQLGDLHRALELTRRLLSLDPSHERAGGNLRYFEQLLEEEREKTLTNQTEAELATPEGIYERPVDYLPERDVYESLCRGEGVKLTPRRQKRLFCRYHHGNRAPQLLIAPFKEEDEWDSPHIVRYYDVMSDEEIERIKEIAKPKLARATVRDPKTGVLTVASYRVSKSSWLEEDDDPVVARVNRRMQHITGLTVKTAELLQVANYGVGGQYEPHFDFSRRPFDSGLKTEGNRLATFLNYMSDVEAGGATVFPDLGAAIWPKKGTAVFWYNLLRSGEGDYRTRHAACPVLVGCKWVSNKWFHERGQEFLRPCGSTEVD
T1 sequence (P07237 18-508 partner): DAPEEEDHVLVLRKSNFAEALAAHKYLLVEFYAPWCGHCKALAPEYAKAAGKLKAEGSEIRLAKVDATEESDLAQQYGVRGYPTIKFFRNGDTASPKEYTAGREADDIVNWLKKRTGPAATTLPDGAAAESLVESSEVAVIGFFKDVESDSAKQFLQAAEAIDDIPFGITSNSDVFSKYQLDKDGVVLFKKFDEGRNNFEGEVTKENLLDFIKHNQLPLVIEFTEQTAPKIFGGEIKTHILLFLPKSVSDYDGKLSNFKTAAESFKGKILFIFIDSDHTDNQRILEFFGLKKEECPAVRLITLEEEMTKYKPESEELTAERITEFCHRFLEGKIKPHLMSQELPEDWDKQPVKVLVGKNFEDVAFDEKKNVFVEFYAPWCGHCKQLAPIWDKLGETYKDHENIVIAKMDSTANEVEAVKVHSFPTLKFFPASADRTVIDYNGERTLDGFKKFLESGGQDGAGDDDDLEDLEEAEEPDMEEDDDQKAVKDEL
Procedure: Assay Buffer consisted of Tris-HCl, pH 7.5, 0.2 mM DTT, and 0.5 mg/ml catalase. PPG10 peptide was dissolved in 0.25% acetic acid and denatured by boiling for 5 minutes then placed on ice for 5 minutes. The denatured PPG10 was then pre-mixed with 1 M ascorbate, prepared in water, and the mixture diluted with Assay Buffer to yield a working solution of 5× peptide and ascorbate. FeSO4 was freshly dissolved in water and diluted to a 2.8× concentration in Assay Buffer. Enzyme stocks were diluted to a 5× concentration in Assay Buffer. Example compounds plus FeSO4 solution were mixed, followed by addition of 5× enzyme solutions. After 10 minutes gentle mixing at room temperature, the 5× peptide solution was added. […] Final concentrations in the assay were: 50 mM Tris-HCl, pH 7.5, 0.2 mM DTT, 0.5 mg/mL catalase, 10 μM FeSO4, 100 μM PPG10, 50 μM 5-[^14C]-2-oxoglutarate (23-37 cpm/pmol), 1 mM ascorbate, and 4% DMSO. Reactions were gently mixed at room temperature for 1 hour and terminated by addition of an equal volume of 0.02 N H2SO4.
A portion of each terminated reaction was auto-injected into a Polypore H column (PerkinElmer, Waltham, Mass.) at a rate of 0.3 mL/min with 0.01 NH2SO4 as the mobile phase. The HPLC method employed exploits the difference in pKa of the 2-OG and SA carboxylates to chromatographically separate substrate from product at low pH on ion-exchange resin, as described by Cunliffe, et al (Biochem J., 240, 617-619 (1986)) and Kaule and Gunzler (Anal. Biochem., 184, 291-297 (1990)). An Agilent 1100 HPLC System with dual quaternary pumps, column switching valve, and dual columns was used to resolve product from substrate. The Agilent 1100 Multiple Wavelength Detector indicated UV absorption of the substrate and product peaks at 210 nm and a Beta-RAM Model 2 radiation detector with In-Flow 2:1 scintillation cocktail (IN/US Systems Inc.) enabled quantitation of the 2 radioactive peaks. Laura Lite software (IN/US, Tampa, Fla.) was used to collect and analyze radiometric data. […] To standardize across studies, 2-OG conversion was normalized to percent of control (POC) values using reactions that lacked enzyme or inhibitor as low and high controls, respectively. POC data was fitted to the 4-parameter logistic model (A+((B−A)/(1+((x/C)^D)))) using ActivityBase (IDBS, Alameda Calif.) where A is the minimum POC value, B is the maximum POC value, D is the slope factor, and C is compound concentration at the inflection point (IC50, micromolar).

Sequence of HIF PHD2 (Q9GZT9 whole entry): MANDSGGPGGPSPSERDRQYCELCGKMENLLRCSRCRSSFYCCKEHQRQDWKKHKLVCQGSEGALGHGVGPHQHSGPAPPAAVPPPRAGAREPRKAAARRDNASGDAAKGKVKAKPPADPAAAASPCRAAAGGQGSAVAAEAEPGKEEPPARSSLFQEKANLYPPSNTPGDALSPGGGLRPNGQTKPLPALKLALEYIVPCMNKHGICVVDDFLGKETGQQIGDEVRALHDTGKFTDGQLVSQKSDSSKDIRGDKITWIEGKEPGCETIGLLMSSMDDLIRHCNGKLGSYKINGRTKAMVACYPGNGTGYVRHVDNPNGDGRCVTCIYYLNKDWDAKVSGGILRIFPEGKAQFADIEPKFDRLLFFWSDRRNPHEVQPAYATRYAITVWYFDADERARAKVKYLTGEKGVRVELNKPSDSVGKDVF

| IC50 (HIF PHD2) | IC50 [1] | Compound |
| --- | --- | --- |
| 0.02 µM | – | Cc1c(Br)sc2c(O)c(C(=O)NCC(=O)O)c(=O)n(C)c12 [Example 16, 2-(2-bromo-7-hydroxy-3,4-dimethyl-5-oxo-4,5-dihydrothieno[3,2-b]pyridine-6-carboxamido)acetic acid] |
| 0.02 µM | – | Cc1nc2c(s1)c(O)c(C(=O)NCC(=O)O)c(=O)n2C [Example 2, N-((7-hydroxy-2,4-dimethyl-5-oxo-4,5-dihydro[1,3]thiazolo[4,5-b]pyridin-6-yl)carbonyl)glycine] |
| 0.016 µM | – | Cc1ncccc1-c1cc2c(s1)c(O)c(C(=O)NCC(=O)O)c(=O)n2C [Example 13, 2-(7-hydroxy-4-methyl-2-(2-methylpyridin-3-yl)-5-oxo-4,5-dihydrothieno[3,2-b]pyridine-6-carboxamido)acetic acid] |
| 0.021 µM | – | Cn1c(=O)c(C(=O)NCC(=O)O)c(O)c2sc(-c3ccccc3)cc21 [Example 15, 2-(7-hydroxy-4-methyl-5-oxo-2-phenyl-4,5-dihydrothieno[3,2-b]pyridine-6-carboxamido)acetic acid] |
| 0.024 µM | – | Cc1csc2c(O)c(C(=O)NCC(=O)O)c(=O)n(C)c12 [Example 4, 2-(7-hydroxy-3,4-dimethyl-5-oxo-4,5-dihydrothieno[3,2-b]pyridine-6-carboxamido)acetic acid] |
| 0.122 µM | – | Cc1csc2c(O)c(C(=O)N[C@@H](C)C(=O)O)c(=O)n(C)c12 [Example 7, (S)-2-(7-hydroxy-3,4-dimethyl-5-oxo-4,5-dihydrothieno[3,2-b]pyridine-6-carboxamido)propanoic acid] |
| 0.0073 µM | 0.03 µM | Cn1c(=O)c(C(=O)NCC(=O)O)c(O)c2sc(Br)cc21 [Example 6, 2-(2-bromo-7-hydroxy-4-methyl-5-oxo-4,5-dihydrothieno[3,2-b]pyridine-6-carboxamido)acetic acid] |
| 0.015 µM | – | Cn1c(=O)c(C(=O)NCC(=O)O)c(O)c2sc3ccccc3c21 [Example 9, N-((4-hydroxy-1-methyl-2-oxo-1,2-dihydro[1]benzothieno[3,2-b]pyridin-3-yl)carbonyl)glycine] |
| 0.0083 µM | – | Cn1c(=O)c(C(=O)NCC(=O)O)c(O)c2sc(-c3cncnc3)cc21 [Example 12, 2-(7-hydroxy-4-methyl-5-oxo-2-(pyrimidin-5-yl)-4,5-dihydrothieno[3,2-b]pyridine-6-carboxamido)acetic acid] |
| 0.109 µM | – | C[C@H](NC(=O)c1c(O)c2sc3ccccc3c2n(C)c1=O)C(=O)O [Example 10, N-((4-hydroxy-1-methyl-2-oxo-1,2-dihydro[1]benzothieno[3,2-b]pyridin-3-yl)carbonyl)-L-alanine] |
| 0.047 µM | – | Cn1c(=O)c(C(=O)NCC(=O)O)c(O)c2sc(-c3ccc(Cl)cc3)nc21 [Example 1, N-((2-(4-chlorophenyl)-7-hydroxy-4-methyl-5-oxo-4,5-dihydro[1,3]thiazolo[4,5-b]pyridin-6-yl)carbonyl)glycine] |
| 0.078 µM | – | Cc1ccsc1-c1cc2c(s1)c(O)c(C(=O)NCC(=O)O)c(=O)n2C [Example 14, 2-(7-hydroxy-4-methyl-2-(3-methylthiophen-2-yl)-5-oxo-4,5-dihydrothieno[3,2-b]pyridine-6-carboxamido)acetic acid] |
| 0.097 µM | – | Cn1c(=O)c(C(=O)NCC(=O)O)c(O)c2sc(-c3ccc(Cl)cc3)cc21 [Example 5, 2-(2-(4-chlorophenyl)-7-hydroxy-4-methyl-5-oxo-4,5-dihydrothieno[3,2-b]pyridine-6-carboxamido)acetic acid] |
| 0.018 µM | – | Cn1c(=O)c(C(=O)NCC(=O)O)c(O)c2sc(C(F)(F)F)c(-c3ccccc3)c21 [Example 8, 2-(7-hydroxy-4-methyl-5-oxo-3-phenyl-2-(trifluoromethyl)-4,5-dihydrothieno[3,2-b]pyridine-6-carboxamido)acetic acid] |
| 0.064 µM | 3.78 µM | Cn1c(=O)c(C(=O)CCC(=O)O)c(O)c2sc(Br)cc21 [Example 17, 4-(2-bromo-7-hydroxy-4-methyl-5-oxo-4,5-dihydrothieno[3,2-b]pyridin-6-yl)-4-oxobutanoic acid] |
| 0.003 µM | 34.3 µM | Cn1c(=O)c(C(=O)CCC(=O)O)c(O)c2sccc21 [Example 18, 4-(7-hydroxy-4-methyl-5-oxo-4,5-dihydrothieno[3,2-b]pyridin-6-yl)-4-oxobutanoic acid] |
| 0.015 µM | – | Cn1c(=O)c(C(=O)NCC(=O)O)c(O)c2sc(-c3ccc(F)cc3)cc21 [Example 11, 2-(2-(4-fluorophenyl)-7-hydroxy-4-methyl-5-oxo-4,5-dihydrothieno[3,2-b]pyridine-6-carboxamido)acetic acid] |
| 0.075 µM | 0.345 µM | Cn1c(=O)c(C(=O)NCC(=O)O)c(O)c2sccc21 [Example 3, 2-(7-hydroxy-4-methyl-5-oxo-4,5-dihydrothieno[3,2-b]pyridine-6-carboxamido)acetic acid] |
